Read-outs that look alike come from different tables or passages of the source.
Columns and labels:
Experiment in all cases: Ras GTP binding domain inhibition assay (labeled GTP)
KRas G12D mutant protein = KRas G12D mutant protein (Homo sapiens (Human), UniProt P01116, G12D); conditions: 20 μM compound
KRas wild type = KRas wild type (Homo sapiens (Human), UniProt P01116); conditions: 20 μM compound
Summary of the method: (§1)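 Inhibition of labeled GTP binding is measured on immobilized His-KRas protein in Tris buffer pH 7.5 with 1 mM MgCl2 and 1 mM DTT.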

KRas Q61H mutant = KRas Q61H mutant (Homo sapiens (Human), UniProt P01116, Q61H); conditions: 20 μM compound
Chain of KRas Q61H mutant (P01116-2 other isoform, or with tags, fused parts or gaps Q61H): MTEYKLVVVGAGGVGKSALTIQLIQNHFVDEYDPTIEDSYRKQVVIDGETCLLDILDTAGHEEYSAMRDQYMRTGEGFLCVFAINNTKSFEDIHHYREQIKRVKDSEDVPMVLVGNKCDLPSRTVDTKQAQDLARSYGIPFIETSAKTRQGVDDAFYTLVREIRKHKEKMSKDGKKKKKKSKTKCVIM
Summary of the method: as §1

[1] = target: KRas G12C/Q61H double mutant (Homo sapiens (Human), UniProt P01116, G12C/Q61H); conditions: 20 μM compound
Chain of KRas G12C/Q61H double mutant (P01116-2 other isoform, or with tags, fused parts or gaps G12C/Q61H): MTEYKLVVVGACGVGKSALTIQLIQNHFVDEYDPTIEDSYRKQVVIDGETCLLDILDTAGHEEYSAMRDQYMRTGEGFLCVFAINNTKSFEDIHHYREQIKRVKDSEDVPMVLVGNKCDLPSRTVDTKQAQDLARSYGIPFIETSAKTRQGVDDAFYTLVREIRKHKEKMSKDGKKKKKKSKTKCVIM
Summary of the method: as §1

KRas G12C mutant = KRas G12C mutant (Homo sapiens (Human), UniProt P01116, G12C); conditions: 20 μM compound
Chain of KRas G12C mutant (P01116-2 other isoform, or with tags, fused parts or gaps G12C): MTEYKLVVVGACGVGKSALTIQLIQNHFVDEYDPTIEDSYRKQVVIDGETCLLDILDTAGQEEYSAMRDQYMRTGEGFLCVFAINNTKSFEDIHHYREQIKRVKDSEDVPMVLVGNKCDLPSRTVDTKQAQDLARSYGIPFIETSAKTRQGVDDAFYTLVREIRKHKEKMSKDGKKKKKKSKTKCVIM
Summary of the method: as §1

[2] = target: KRas G12D/Q61H double mutant (Homo sapiens (Human), UniProt P01116, G12D/Q61H); conditions: for inhibition at 20 µM: 20 μM compound; for IC50: serial dilution, read-out: KRas G12D Q61H (classes E-H, IC50)
Chain of KRas G12D/Q61H double mutant (P01116-2 other isoform, or with tags, fused parts or gaps G12D/Q61H): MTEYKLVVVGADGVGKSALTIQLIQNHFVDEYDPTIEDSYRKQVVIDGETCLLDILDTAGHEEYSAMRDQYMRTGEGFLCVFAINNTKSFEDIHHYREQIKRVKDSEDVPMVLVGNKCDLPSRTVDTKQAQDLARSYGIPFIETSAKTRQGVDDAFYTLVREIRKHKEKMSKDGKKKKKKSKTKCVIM
Summary of the method: as §1

[3] = read-out: % Inhibition at 20 μM KRas G12D
[4] = read-out: % Inhibition at 20 μM KRas wild type
[5] = read-out: % Inhibition at 20 μM KRas Q61H
[6] = read-out: % Inhibition at 20 μM KRas G12C Q61H
[7] = read-out: % Inhibition at 20 μM KRas G12C
[8] = read-out: % Inhibition at 20 μM KRas G12D Q61H
[9] = KRas G12D, read-out: % Inhibition at 20 μM of K-Ras mutant and wild-type protein, KRas G12D
[10] = KRas wild type, read-out: % Inhibition at 20 μM of K-Ras mutant and wild-type protein, KRas wild type
[11] = KRas Q61H, read-out: % Inhibition at 20 μM of K-Ras mutant and wild-type protein, KRas Q61H
[12] = KRas G12C/Q61H double mutant, read-out: % Inhibition at 20 μM of K-Ras mutant and wild-type protein, KRas G12C Q61H
[13] = KRas G12C, read-out: % Inhibition at 20 μM of K-Ras mutant and wild-type protein, KRas G12C
[14] = KRas G12D/Q61H double mutant, read-out: % Inhibition at 20 μM of K-Ras mutant and wild-type protein, KRas G12D Q61H

Chain of KRas G12D mutant protein (P01116-2 other isoform, or with tags, fused parts or gaps G12D): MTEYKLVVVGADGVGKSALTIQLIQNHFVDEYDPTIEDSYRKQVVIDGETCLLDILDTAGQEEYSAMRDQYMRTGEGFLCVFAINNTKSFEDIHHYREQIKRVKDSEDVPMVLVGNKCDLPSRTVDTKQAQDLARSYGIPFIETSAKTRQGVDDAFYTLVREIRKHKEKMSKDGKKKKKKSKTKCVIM
Chain of KRas wild type (P01116-2 other isoform, or with tags, fused parts or gaps): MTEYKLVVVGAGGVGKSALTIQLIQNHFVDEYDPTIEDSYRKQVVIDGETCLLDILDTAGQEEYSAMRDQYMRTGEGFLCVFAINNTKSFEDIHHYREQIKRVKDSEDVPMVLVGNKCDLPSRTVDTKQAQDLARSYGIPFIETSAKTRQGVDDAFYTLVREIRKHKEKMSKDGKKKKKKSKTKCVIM

| SMILES | inhibition at 20 µM (KRas G12D mutant protein; [3]) [%] | inhibition at 20 µM (KRas wild type; [4]) [%] | inhibition at 20 µM (KRas Q61H mutant; [5]) [%] | inhibition at 20 µM [1, 6] [%] | inhibition at 20 µM (KRas G12C mutant; [7]) [%] | inhibition at 20 µM [2, 8] [%] | inhibition at 20 µM (KRas G12D mutant protein; [9]) [%] | inhibition at 20 µM (KRas wild type; [10]) [%] | inhibition at 20 µM (KRas Q61H mutant; [11]) [%] | inhibition at 20 µM [1, 12] [%] | inhibition at 20 µM (KRas G12C mutant; [13]) [%] | inhibition at 20 µM [2, 14] [%] | IC50 [2] [µM] |
| --- | --- | --- | --- | --- | --- | --- | --- | --- | --- | --- | --- | --- | --- |
| O=C(CCc1nn[nH]n1)Nc1nc(-c2ccccn2)nc2sccc12 [drawing 2890] | 51 to 75 | 51 to 75 | 51 to 75 | 51 to 75 | 25 to 50 | 51 to 75 |  |  |  |  |  |  |  |
| Cc1sc2c(O)nc(-c3ccccn3)nc2c1-c1ccncc1 [drawing 3497] |  |  |  |  |  |  | 51 to 75 | 1 to 25 | 51 to 75 | 25 to 50 | 25 to 50 | 51 to 75 |  |
| O=C(c1cc2nc(-c3ccccn3)nc(O)c2s1)N1CCN(c2ccccc2)CC1 [drawing 2841] | 51 to 75 | 51 to 75 | 51 to 75 | 51 to 75 | 51 to 75 | 51 to 75 |  |  |  |  |  |  |  |
| CCC(C)c1csc2c(OC)nc(-c3ccccn3)nc12 (stereo not shown) [drawing 3471] |  |  |  |  |  |  | 25 to 50 | 25 to 50 | 51 to 75 | 51 to 75 | 25 to 50 | 51 to 75 |  |
| CN1CCN(c2nc(-c3ccccn3)nc3scc(C(=O)NCCc4cnc(O)nc4)c23)CC1 [drawing 2899] | 51 to 75 | 1 to 25 | 51 to 75 | 51 to 75 | 1 to 25 | 25 to 50 |  |  |  |  |  |  | > 30 |
| COCCNc1nc(-c2cn(C)cn2)nc2sc(-c3ccncc3)c(-c3ccccc3)c12 [drawing 3530] |  |  |  |  |  |  | 51 to 75 | 51 to 75 | 76 to 100 | 51 to 75 | 51 to 75 | 76 to 100 |  |
| Cc1cnccc1-c1csc2c(O)nc(-c3ccccn3)nc12 [drawing 2888] | 51 to 75 | 76 to 100 | 51 to 75 | 51 to 75 | 25 to 50 | 51 to 75 |  |  |  |  |  |  |  |
| O=C(c1csc2c(O)nc(-c3ccccn3)nc12)N1CC2CC1CN2c1ccccc1 (stereo not shown) [drawing 2838] | 51 to 75 | 25 to 50 | 76 to 100 | 76 to 100 | 25 to 50 | 76 to 100 |  |  |  |  |  |  |  |
| O=C(CCn1ccnc1)Nc1nc(-c2ccccn2)nc2sccc12 [drawing 2889] | 76 to 100 | 51 to 75 | 76 to 100 | 51 to 75 | 25 to 50 | 51 to 75 |  |  |  |  |  |  |  |
| Cc1sc2c(O)nc(-c3ccccn3)nc2c1-c1ccccc1 [drawing 2905] | 51 to 75 | 1 to 25 | 25 to 50 | 25 to 50 | 25 to 50 | 51 to 75 |  |  |  |  |  |  |  |
| COCCNc1nc(-c2ccccn2)nc2c1c(-c1ccccc1)nn2-c1ccccn1 [drawing 3538] |  |  |  |  |  |  | 51 to 75 | 51 to 75 | 51 to 75 | 76 to 100 | 51 to 75 | 51 to 75 |  |
| Oc1nc(-c2ccccn2)nc2c(-c3ccccc3Cl)csc12 [drawing 2695] | 25 to 50 | 1 to 25 | 51 to 75 | 51 to 75 | 25 to 50 | 51 to 75 |  |  |  |  |  |  |  |
| Oc1nc(-c2ccccn2)nc2c(C3CC3)csc12 [drawing 3518] |  |  |  |  |  |  | 51 to 75 | 25 to 50 | 25 to 50 | 1 to 25 | 25 to 50 | 25 to 50 |  |
| COc1cccc(C2CN(C(=O)c3csc4c(O)nc(-c5ccccn5)nc34)CCN2)c1 (stereo not shown) [drawing 2773] | 51 to 75 | 25 to 50 | 76 to 100 | 51 to 75 | 25 to 50 | 25 to 50 |  |  |  |  |  |  | 11 to 30 |
| Oc1nc(-c2ccccn2)nc2c(-c3ccccc3C(F)F)csc12 [drawing 2883] | 51 to 75 | 25 to 50 | 51 to 75 | 51 to 75 | 25 to 50 | 51 to 75 |  |  |  |  |  |  |  |
| COc1ccnc(-c2nc(O)c3ccsc3n2)c1 [drawing 2708] | 51 to 75 | 25 to 50 | 51 to 75 | 51 to 75 | 51 to 75 | 51 to 75 |  |  |  |  |  |  | 5 to 10 |
| COc1ccccc1-c1csc2c(O)nc(-c3ccccn3)nc12 [drawing 2870] | 51 to 75 | 25 to 50 | 25 to 50 | 25 to 50 | 25 to 50 | 25 to 50 |  |  |  |  |  |  |  |
| COc1ccnc(-c2nc(O)c3c(Cl)csc3n2)c1 [drawing 2800] | 51 to 75 | 51 to 75 | 76 to 100 | 76 to 100 | 25 to 50 | 51 to 75 |  |  |  |  |  |  | 11 to 30 |
| Oc1nc(-c2ccccn2)nc2c(-c3cc(CN4CCCC4)ccc3F)csc12 [drawing 3502] |  |  |  |  |  |  | 76 to 100 | 25 to 50 | 76 to 100 | 51 to 75 | 51 to 75 | 51 to 75 |  |
| Oc1nc(-c2ccccn2)nc2c(-c3cccc(C(F)(F)F)c3)csc12 [drawing 2873] | 51 to 75 | 25 to 50 | 51 to 75 | 25 to 50 | 25 to 50 | 25 to 50 |  |  |  |  |  |  |  |
| CN(C)CCOc1cccc(-c2csc3c(O)nc(-c4ccccn4)nc23)c1 [drawing 3492] |  |  |  |  |  |  | 76 to 100 | 51 to 75 | 76 to 100 | 76 to 100 | 51 to 75 | 76 to 100 |  |
| COc1cnc(-c2ccccn2)nc1O [drawing 3469] |  |  |  |  |  |  | 51 to 75 | 25 to 50 | 51 to 75 | 76 to 100 | 76 to 100 | 51 to 75 |  |
| CC(C)c1csc2c(O)nc(-c3ccccn3)nc12 [drawing 3487] |  |  |  |  |  |  | 51 to 75 | 51 to 75 | 51 to 75 | 51 to 75 | 51 to 75 | 51 to 75 |  |
